The source of these data is US9260485B2 (priority 2009, dated 2016).

Like-named read-outs stand apart in the source and are kept apart here. Square brackets hold non-standard residues; d marks the D form. Peptide text beside a SMILES is read from it. ξ: configuration not given here. ξLac(3-iPr) = CC(C)CC(O)C(=O)O

Series [1] concerns SK-MEL-2 skin cancer cell line. Put plainly: In vitro cytotoxicity, SRB method. The format is cell-based, Human. The procedure:
(§1) Known cyclic hexadepsipeptides (beauvericin, enniatin H, I, and MK1688) and the compounds of Chemical Formulas 1 and 2 were evaluated for in vitro cytotoxicity against various non-multidrug-resistant human cancer cell lines and multidrug-resistant cancer cell lines using the SRB method.
(§2) Human non-small-cell lung cancer cell line (A549) ovarian cancer cell line (SK-OV-3), skin cancer cell line (SK-MEL-2), and uterine sarcoma cell line MES-SA and its multi-drug resistant subline (MES-SA/DX5) were purchased from the American Type Culture Collection (USA). Colorectal carcinoma cancer cell line (HCT-15) was provided by the National Cancer Institute (NCI). HCT15/CL02 cell lines were established from HCT15 cells by continuous and stepwise exposure of the cells to doxorubicin in the Korea Research Institute of Chemical Technology (Korea).
(Sulforhodamine B stains cellular protein and so reports cell mass.)

In series [2] the test system is HCT15 colorectal carcinoma cancer cell line. As to the kind of experiment: In vitro cytotoxicity, SRB method. The format is cell-based, Human. The procedure:
as §1, §2

In series [3] the test system is HCT15/CL02 cell line (doxorubicin-selected from HCT15). As to the kind of experiment: In vitro cytotoxicity, SRB method. Type of series: cell-based, Human. The procedure:
as §1, §2

For series [4], the system named is MES-SA uterine sarcoma cell line. Put plainly: In vitro cytotoxicity, SRB method. The format is cell-based, Human. The settings on record: read-out: EC50 (concentration inhibiting cell growth in vitro by 50%). Here is the method: as §1, §2
The test system of series [5] is A549 non-small-cell lung cancer cell line. As to the kind of experiment: In vitro cytotoxicity, SRB method. The format is cell-based, Human. The procedure: as §1, §2
Series [6] has as its system MES-SA/DX5 multi-drug resistant subline. Put plainly: In vitro cytotoxicity, SRB method. The format is cell-based, Human. Here is the method: as §1, §2
Series [7] relates to SK-OV-3 ovarian cancer cell line. Put plainly: In vitro cytotoxicity, SRB method. The format is cell-based, Human. Here is the method:
as §1, §2

For series [8], the system named is Fusarium oxysporum. Put plainly: Anti-fungal activity, paper disc on mycelia on PDA. The format is cell-based. Here is the method: (§3) Inhibitory activity was performed against four fungus strains (Mucor rouxii, Penicillium citrinum, Fusarium oxysporum, and Aspergillus oryzae).
(§4) Drops of 1 and 10 mM solutions of compounds of Chemical Formulas 1 and 2 in methanol were loaded onto sterile paper discs (8 mm diameter) and the methanol solvent was evaporated under a hood. The paper discs were placed on fungus mycelia grown on potato dextrose agar. After incubation at 25° C. for 48 hr, clear zones around the discs were observed and their diameters were measured. A filter treated with pure methanol was used as a negative control.

Series [9] deals with Penicillium citrinum. As to the kind of experiment: Anti-fungal activity, paper disc on mycelia on PDA. Type of series: cell-based. The conditions noted are these: 1 mM; 25° C., 48 hr. Here is the method:
as §3, §4

Series [10] relates to Mucor rouxii. As to the kind of experiment: Anti-fungal activity, paper disc on mycelia on PDA. The format is cell-based. The procedure:
as §3, §4

Series [11] has as its system Aspergillus oryzae. Put plainly: Anti-fungal activity, paper disc on mycelia on PDA. The settings on record: 1 mM; 25° C., 48 hr. Type of series: cell-based. Here is the method:
as §3, §4

Series [12] concerns Salmonella typhimurium ATCC 14028. As to the kind of experiment: Anti-bacterial activity, paper disc clear zone. The format is cell-based. The settings on record: 0.1, 0.5, 1 and 2 mM on paper disc; 37° C., 24 hr. The procedure: (§5) Assays for antibacterial activity were performed with 3 Gram-positive (Listeria monocytogenes ATCC 14028, Staphylococcus aureus ATCC 35556 and Bacillus cereus ATCC 13061) and 3 Gram-negative bacteria (Escherichia coli ATCC 8739, Pseudomonas aeruginosa ATCC 9026 and Salmonella typhimurium ATCC 14028). Each of the compounds of Chemical Formulas 1 and 2 was dissolved in different concentrations (0.1, 0.5, 1, and 2 mM) in dimethyl sulfoxide (DMSO). The solutions were applied to a sterile paper disc (5 mm diameter), followed by evaporating the DMSO solvent. Bacteria was inoculated at a density of 1×10^7 CFU/ml on Tryptic soy agar (TSA) and then, the paper disc was placed on the bacteria-inoculated agars. After incubation at 37° C. for 24 hr, the clear zone around each disc was observed and its diameter was measured.

The test system of series [13] is Bacillus cereus ATCC 13061. As to the kind of experiment: Anti-bacterial activity, paper disc clear zone. Type of series: cell-based. The conditions noted are these: 0.1, 0.5, 1 and 2 mM on paper disc; 37° C., 24 hr. Here is the method:
as §5

Series [14] relates to Escherichia coli ATCC 8739. As to the kind of experiment: Anti-bacterial activity, paper disc clear zone. Type of series: cell-based. The settings on record: 0.1, 0.5, 1 and 2 mM on paper disc; 37° C., 24 hr. Here is the method:
as §5

The test system of series [15] is Staphylococcus aureus ATCC 35556. As to the kind of experiment: Anti-bacterial activity, paper disc clear zone. The conditions noted are these: 0.1, 0.5, 1 and 2 mM on paper disc; 37° C., 24 hr. The format is cell-based. The procedure: as §5
Series [16] concerns Listeria monocytogenes ATCC 14028. As to the kind of experiment: Anti-bacterial activity, paper disc clear zone. The format is cell-based. The settings on record: 0.1, 0.5, 1 and 2 mM on paper disc; 37° C., 24 hr. The procedure: as §5
The subject of series [17] is Pseudomonas aeruginosa ATCC 9026. As to the kind of experiment: Anti-bacterial activity, paper disc clear zone. The format is cell-based. The conditions noted are these: 0.1, 0.5, 1 and 2 mM on paper disc; 37° C., 24 hr. Here is the method: as §5
Series [18] relates to MDR cell lines (MES-SA/DX5 and HCT15/CL02). Put plainly: Multidrug resistance-reversing activity, summary in words. The format is cell-based, Human. Here is the method:
The cyclic pentadepsipeptides of Chemical Formulas 1 and 2 were analyzed for MDR-reversing activity by comparing inhibitory activities against multidrug-resistant cancer cell lines (MES-SA/DX5 and HCT15/CL02) with those against non-multidrug-resistant cancer cell lines (MES-SA and HCT15). In this regard, the effects of the cyclic pentadepsipeptides of Chemical Formulas 1 and 2 on paclitaxel's cytotoxicity against MDR tumor cells were measured (Table 6). […].
Therefore, the N-methyl group in the cyclic pentadepsipeptide may be a factor crucial for the expression of the MDR reversal activity. […]

Setting [19] is: Homo sapiens, SK-MEL-2, read-out: EC50 (concentration inhibiting cell growth in vitro by 50%).
The mark [20] stands for this setting: Homo sapiens, A549, read-out: EC50 (concentration inhibiting cell growth in vitro by 50%).
Where [21] appears, read: Homo sapiens, MES-SA/Dx5, read-out: EC50 (concentration inhibiting cell growth in vitro by 50%).
Setting [22] is: Homo sapiens, SK-OV-3, read-out: EC50 (concentration inhibiting cell growth in vitro by 50%).
The mark [23] stands for this setting: read-out: EC50 (concentration inhibiting cell growth in vitro by 50%), SK-MEL-2.
The mark [24] stands for this setting: read-out: EC50 (concentration inhibiting cell growth in vitro by 50%), HCT15.
[25] abbreviates: read-out: EC50 (concentration inhibiting cell growth in vitro by 50%), HCT15/CL02.
[26] abbreviates: read-out: EC50 (concentration inhibiting cell growth in vitro by 50%), A549.
Setting [27] is: read-out: EC50 (concentration inhibiting cell growth in vitro by 50%), MES-SA/DX5.
The mark [28] stands for this setting: read-out: EC50 (concentration inhibiting cell growth in vitro by 50%), SK-OV-3.
Where [29] appears, read: Homo sapiens, HCT-15, read-out: EC50 (concentration inhibiting cell growth in vitro by 50%).

Regarding `COc1cccc2c1C(=O)c1c(O)c3c(c(O)c1C2=O)C[C@@](O)(C(=O)CO)C[C@@H]3O[C@H]1C[C@H](N)[C@H](O)[C@H](C)O1` [Doxorubicin, doxorubicin], the EC50 in [1] (setting [19]) amounted to 40 ± 10 nM; in series [2] (Homo sapiens, HCT-15, read-out: EC50 (concentration inhibiting cell growth in vitro by 50%), HCT15), 0.01 ± 0.001 µM; in series [3] (Homo sapiens, HCT-15, read-out: EC50 (concentration inhibiting cell growth in vitro by 50%), HCT15/CL02), 4.48 ± 2.15 µM; in series [4] (Homo sapiens), 0.01 ± 0.0001 µM; in [5] (setting [20]) it was 30 ± 10 nM; in series [6] (setting [21]), 1.03 ± 0.31 µM. Moreover, the EC50 in series [7] (setting [22]) was 60 ± 10 nM.
For `CC[C@H](C)[C@H]1OC(=O)[C@H](C(C)C)N(C)C(=O)[C@@H](C(C)C)OC(=O)[C@H](C(C)C)N(C)C(=O)[C@@H]([C@@H](C)CC)OC(=O)[C@H](C(C)C)N(C)C1=O` [EN I, enniatin I], the EC50 was 530 ± 60 nM in series [1] (setting [23]); 5.56 ± 0.22 µM in [2] (setting [24]); 5.88 ± 0.21 µM in [3] (setting [25]); 3.94 ± 0.03 µM in series [4]; 500 ± 40 nM in [5] (setting [26]); 4.9 ± 0.27 µM in [6] (setting [27]). In series [7] (setting [28]), the EC50 came to 490 ± 30 nM.
`CCC(C)C[C@H]1OC(=O)[C@H](C(C)C)N(C)C(=O)[C@@H](CC(C)C)OC(=O)[C@H](C(C)C)N(C)C(=O)[C@@H](C(C)C)OC(=O)[C@H](C(C)C)N(C)C1=O` (stereo partly shown) [EN MK1688, Enniatin MK1688]: the EC50 in [1] (setting [23]) turned out to be 630 ± 10 nM; in series [2] (setting [24]) it was 14 ± 0.54 µM; in [3] (setting [25]), 16.4 ± 0.84 µM; in series [4], 13.6 ± 1.05 µM; in series [5] (setting [26]) it was 450 ± 40 nM; in series [6] (setting [27]), 13.6 ± 0.79 µM. The EC50 in [7] (setting [28]) stood at 460 ± 30 nM.
With beauvericin, the EC50 in series [1] (setting [23]) was determined as 1470 ± 90 nM; in [2] (setting [24]) it was 1.53 ± 0.09 µM; in [3] (setting [25]), 1.66 ± 0.08 µM; in series [4], 1.29 ± 0.02 µM; in series [5] (setting [26]), 1430 ± 160 nM; in [6] (setting [27]) it was 1.34 ± 0.03 µM. Moreover, in series [7] (setting [28]), the EC50 was found to be 1390 ± 90 nM.
With `CC(C)CC1OC(=O)[C@H](CC(C)C)NC(=O)[C@H](Cc2ccccc2)NC(=O)[C@H](C(C)C)NC(=O)[C@H](CC(C)C)NC1=O` (stereo partly shown) [Com. 1, neo-sansalvamide] (cyclo(FL[ξLac(3-iPr)]LV)), the “Antifungal test, overall result” value in [8] was “inhibitory against Mucor rouxii, and Fusarium oxysporum, weakly”; in [10] it was “inhibitory against Mucor rouxii, and Fusarium oxysporum, weakly”. In addition, the “Inhibitory activity on mycelial growth” value in series [8] (1 mM, 25° C., 48 hr) is “No inhibitory activities were detected”; in [9], “No inhibitory activities were detected”; in [10] (1 mM, 25° C., 48 hr), “No inhibitory activities were detected”; in series [11], “No inhibitory activities were detected”. For the same compound, the “Clear zone / inhibitory effect on mycelium” value in series [8] (10 mM, 25° C., 48 hr) is “did not produce a clear zone”. In addition, the Clear zone entry in series [10] (10 mM, 25° C., 48 hr) is “no clear zones were observed”. Moreover, the “Hyphal growth near the paper disc” value in series [10] (10 mM, 25° C., 48 hr) is given as “hyphal growth of Mucor rouxii was reduced”. For the same compound, the “Inhibitory activity (clear zone around disc)” value in [12], in series [13], in series [14], in [15], in series [16] and in [17] was “Neither the compound of Chemical Formula 1 nor Chemical Formula 2 showed inhibitory activity” in each case. Besides, the EC50 is 14000 ± 1320 nM in series [1] (setting [19]); 9.95 ± 1 µM in series [2] (setting [29]); 22.1 ± 2.45 µM in [3] (setting [29]); 11.8 ± 0.13 µM in series [4] (Homo sapiens); 11700 ± 550 nM in series [5] (setting [20]); 19.4 ± 1.1 µM in series [6] (setting [21]). Moreover, in series [7] (setting [22]), the EC50 was 10400 ± 640 nM. Moreover, the “Effect on the cytotoxicity of paclitaxel against MDR cell lines” value in series [18] is reported as “increased the cytotoxicity of paclitaxel against MDR cell lines, but only slightly”.
As to `CC[C@H](C)[C@H]1OC(=O)[C@H](C(C)C)N(C)C(=O)[C@@H](C(C)C)OC(=O)[C@H](C(C)C)N(C)C(=O)[C@@H](C(C)C)OC(=O)[C@H](C(C)C)N(C)C1=O` [EN H, enniatin H], the EC50 is 1770 ± 30 nM in [1] (setting [23]); 16.7 ± 0.96 µM in [2] (setting [24]); 17.7 ± 0.49 µM in series [3] (setting [25]); 12.9 ± 0.23 µM in series [4]; 1840 ± 110 nM in [5] (setting [26]); 14.9 ± 0.59 µM in series [6] (setting [27]). In addition, the EC50 in series [7] (setting [28]) came to 1710 ± 30 nM.
